According to the supplement of paper PMC10627819:

Experiments:
[1] = test system: B. subtilis 168; test: fitness (endpoint OD595 vs no drug) (fraction); higher = more growth
Summary of the method: (§1)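 Each well of a 384-well plate received 30 µl of culture at OD595 0.01, or 55 µl for S. pneumoniae. TSB, LB Lennox or CY served as media at 37 °C. OD595 was taken every 30 min for 14 h and corrected by subtracting the first reading. Fitness is the optical density at stationary-phase entry divided by the robust mean of no-drug controls, capped at 1.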

[2] = test system: S. aureus Newman; test: as above; conditions: one replicate
Summary of the method: as §1

[3] = test system: B. subtilis 168; test: Bliss interaction score (quartile over a dose matrix) (fitness difference); higher = more antagonism (negative = synergy)
Summary of the method: (§2)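 Growth was read as OD595 when cultures entered stationary phase, and each value was divided by the plate's robust no-drug mean and capped at 1. This normalised ratio is the fitness value, and fitness for each single drug came from the combination data. The Bliss score subtracts the expected fitness, taken as the product, from the observed fitness and is given as quartiles across technical, biological and donor/recipient replicates.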

[4] = test system: S. aureus DSM 20231; test: as above
Summary of the method: as §2

[5] = test system: S. aureus Newman; test: as above
Summary of the method: as §2

[6] = test system: S. pneumoniae D39V; test: as above
Summary of the method: as §2
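Throughout, for Bliss interaction score (quartile over a dose matrix): first quartile when negative (synergy) and third quartile when positive (antagonism).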

CO/N=C(\C(=O)N[C@@H]1C(=O)N2C(C(=O)O)=C(COC(N)=O)CS[C@H]12)c1ccco1 [Cefuroxime] + CC1=C(C(=O)O)N2C(=O)[C@@H](NC(=O)[C@H](N)c3ccccc3)[C@H]2SC1 [Cephalexin]
fitness, [1], one replicate
Conditions	first compound 0.04875 µg/mL	first compound 0.0975 µg/mL	first compound 0.195 µg/mL	first compound 1.562 µg/mL	first compound 3.125 µg/mL	first compound 6.25 µg/mL
partner 0.125 µg/mL	0.871	0.73	0.654	0.31	0.24	0.218
partner 0.25 µg/mL	–	–	–	0.236	0.238	0.197
partner 0.5 µg/mL	–	–	–	0.24	0.179	0.109
partner 1 µg/mL	0.545	0.533	0.354	–	–	–

fitness
Conditions	first compound 0.04875 µg/mL	first compound 0.0975 µg/mL	first compound 0.195 µg/mL
[1], partner 0.25 µg/mL	0.709	0.683	0.507
[1], partner 0.5 µg/mL	0.729	0.706	0.527
[2], partner 0.5 µg/mL	0.925	0.883	0.943
[2], partner 1 µg/mL	0.99	0.917	0.941
[2], partner 2 µg/mL	≥ 1	0.967	0.949

Conditions	Bliss interaction score
[3]	-0.0402
[4]	0.0711
[5]	-0.0321
[6]	0.0313

CO/N=C(\C(=O)N[C@@H]1C(=O)N2C(C(=O)O)=C(COC(N)=O)CS[C@H]12)c1ccco1 [Cefuroxime] + O=C(O[C@@H]1Cc2c(O)cc(O)cc2O[C@@H]1c1cc(O)c(O)c(O)c1)c1cc(O)c(O)c(O)c1 [EGCG]
fitness
Conditions	first compound 0.04875 µg/mL	first compound 0.0975 µg/mL	first compound 0.195 µg/mL
[1], partner 6.25 µg/mL	0.74	0.667	0.438
[1], partner 12.5 µg/mL	0.376	0.493	0.506
[1], partner 25 µg/mL	0.249	0.219	0.17
[2], partner 12.5 µg/mL	0.885	0.801	0.879
[2], partner 25 µg/mL	0.767	0.773	0.756
[2], partner 50 µg/mL	0.688	0.617	0.561

fitness, [1], one replicate
Conditions	first compound 0.39 µg/mL	first compound 0.78 µg/mL	first compound 1.562 µg/mL	first compound 3.125 µg/mL	first compound 6.25 µg/mL
partner 6.25 µg/mL	0.425	0.411	0.356	0.3	0.304
partner 12.5 µg/mL	0.461	0.436	0.195	0.236	0.279
partner 25 µg/mL	0.274	0.318	0.103	0.064	0.0477

Conditions	Bliss interaction score
[3]	0.158
[4]	0.0989
[5]	0.0827
[6]	0.0461

CO/N=C(\C(=O)N[C@@H]1C(=O)N2C(C(=O)O)=C(COC(N)=O)CS[C@H]12)c1ccco1 [Cefuroxime] + CN1C2=CC=CC=C2N=C3C1=CC=CC3=O [Pyocyanin]
fitness
Conditions	first compound 0.04875 µg/mL	first compound 0.0975 µg/mL	first compound 0.195 µg/mL
[1], partner 1.25 µg/mL	–	–	0.53
[1], partner 2.5 µg/mL	0.719	–	0.513
[1], partner 5 µg/mL	0.59	0.501	0.463
[2], partner 1.25 µg/mL	0.903	0.869	0.897
[2], partner 2.5 µg/mL	0.84	0.779	0.864
[2], partner 5 µg/mL	0.504	0.451	0.472

fitness, [1], one replicate
Conditions	first compound 1.562 µg/mL	first compound 3.125 µg/mL	first compound 6.25 µg/mL
partner 1.25 µg/mL	0.331	0.306	0.24
partner 2.5 µg/mL	0.308	0.258	0.192
partner 5 µg/mL	0.253	0.215	0.184

Conditions	Bliss interaction score
[3]	0.0646
[4]	-0.0629
[5]	-0.0853
[6]	-0.0309

CO/N=C(\C(=O)N[C@@H]1C(=O)N2C(C(=O)O)=C(COC(N)=O)CS[C@H]12)c1ccco1 [Cefuroxime] + CN[C@@H]1[C@H](O[C@H]2[C@H](O[C@H]3[C@H](O)[C@@H](O)[C@H](N=C(N)N)[C@@H](O)[C@@H]3N=C(N)N)O[C@@H](C)[C@]2(O)C=O)O[C@@H](CO)[C@H](O)[C@H]1O [Streptomycin]
fitness
Conditions	first compound 0.04875 µg/mL	first compound 0.0975 µg/mL	first compound 0.195 µg/mL	first compound 1.562 µg/mL	first compound 3.125 µg/mL	first compound 6.25 µg/mL
[1], partner 2 µg/mL	0.722	0.664	0.6	0.132	0.088	0.0549
[1], partner 4 µg/mL	–	–	0.164	0.0266	0.015	0.0149
[1], partner 8 µg/mL	0.0543	0.0254	0.0361	0.032	0.0257	0.0148
[2], partner 2 µg/mL	0.826	0.746	0.814	–	–	–
[2], partner 4 µg/mL	0.944	≥ 1	0.781	–	–	–
[2], partner 8 µg/mL	0.994	0.963	0.81	–	–	–

Conditions	Bliss interaction score
[3]	-0.123
[4]	-0.357
[5]	0.335
[6]	0.0384

CO/N=C(\C(=O)N[C@@H]1C(=O)N2C(C(=O)O)=C(COC(C)=O)CS[C@H]12)c1csc(N)n1 [Cefotaxime] + CO/N=C(\C(=O)N[C@@H]1C(=O)N2C(C(=O)O)=C(COC(N)=O)CS[C@H]12)c1ccco1 [Cefuroxime]
fitness, [1], one replicate
Conditions	first compound 0.00775 µg/mL	first compound 0.0155 µg/mL	first compound 0.031 µg/mL	first compound 0.0625 µg/mL	first compound 0.125 µg/mL	first compound 0.25 µg/mL	first compound 0.5 µg/mL	first compound 1 µg/mL	first compound 2 µg/mL
partner 0.04875 µg/mL	–	–	–	0.421	0.41	0.354	0.0782	0.0681	0.0589
partner 0.0975 µg/mL	–	–	–	0.492	0.444	0.451	0.0682	0.0388	0.0337
partner 0.195 µg/mL	0.236	0.172	0.176	0.329	0.331	0.305	0.0838	0.0517	0.0469
partner 0.39 µg/mL	0.194	0.121	0.138	–	–	–	–	–	–
partner 0.78 µg/mL	0.147	0.0786	0.0789	–	–	–	–	–	–
partner 1.562 µg/mL	–	–	–	–	–	–	0.308	0.139	0.161
partner 3.125 µg/mL	–	–	–	–	–	–	0.286	0.1	0.138
partner 6.25 µg/mL	–	–	–	–	–	–	0.261	0.114	0.0944

fitness, [2]
Conditions	first compound 0.078 µg/mL	first compound 0.156 µg/mL	first compound 0.312 µg/mL
partner 0.04875 µg/mL	0.834	0.698	0.384
partner 0.0975 µg/mL	0.798	0.574	0.295
partner 0.195 µg/mL	0.84	0.596	0.237

Conditions	Bliss interaction score
[3]	0.0852
[4]	0.107
[5]	-0.0451
[6]	-0.0369

CO/N=C(\C(=O)N[C@@H]1C(=O)N2C(C(=O)O)=C(COC(N)=O)CS[C@H]12)c1ccco1 [Cefuroxime] + CC1=C\[C@@H](O)CC(=O)Cc2nc(co2)C(=O)N2CCC=C2C(=O)O[C@H](C(C)C)[C@H](C)/C=C/C(=O)NC\C=C\1 [Virginiamycin M1]
fitness
Conditions	partner 0.0625 µg/mL	partner 0.125 µg/mL	partner 0.25 µg/mL
[1], first compound 0.04875 µg/mL	–	0.76	–
[1], first compound 0.195 µg/mL	0.558	0.555	0.538
[2], first compound 0.04875 µg/mL	0.927	0.952	0.943
[2], first compound 0.0975 µg/mL	0.963	0.992	0.965
[2], first compound 0.195 µg/mL	0.89	0.944	0.893

fitness, [1], one replicate
Conditions	first compound 1.562 µg/mL	first compound 3.125 µg/mL	first compound 6.25 µg/mL
partner 0.0625 µg/mL	0.334	0.259	0.239
partner 0.125 µg/mL	0.325	0.26	0.208
partner 0.25 µg/mL	0.309	0.217	0.182

Conditions	Bliss interaction score
[3]	0.0564
[4]	0.103
[5]	-0.0495
[6]	-0.0415

CO/N=C(\C(=O)N[C@@H]1C(=O)N2C(C(=O)O)=C(COC(N)=O)CS[C@H]12)c1ccco1 [Cefuroxime] + CN[C@@H]1[C@H](O)[C@H](NC)[C@H]2O[C@@]3(O)C(=O)C[C@@H](C)O[C@H]3O[C@@H]2[C@H]1O [Spectinomycin]
fitness
Conditions	first compound 0.04875 µg/mL	first compound 0.0975 µg/mL	first compound 0.195 µg/mL
[1], partner 2 µg/mL	0.717	0.667	0.55
[1], partner 4 µg/mL	0.799	0.645	0.569
[2], partner 4 µg/mL	0.932	0.971	0.9
[2], partner 8 µg/mL	0.943	0.96	0.877
[2], partner 16 µg/mL	0.94	0.918	0.84

fitness, [1], one replicate
Conditions	first compound 1.562 µg/mL	first compound 3.125 µg/mL	first compound 6.25 µg/mL
partner 2 µg/mL	0.3	0.171	0.134
partner 4 µg/mL	0.234	0.0263	0.0348
partner 8 µg/mL	0.0211	0	0.0048

Conditions	Bliss interaction score
[3]	-0.0976
[4]	0.116
[5]	0.127
[6]	0.0427

CO/N=C(\C(=O)N[C@@H]1C(=O)N2C(C(=O)O)=C(COC(N)=O)CS[C@H]12)c1ccco1 [Cefuroxime] + CN(N=O)C(=O)N[C@@H](C=O)[C@@H](O)[C@H](O)[C@H](O)CO [Streptozotocin]
fitness
Conditions	first compound 0.04875 µg/mL	first compound 0.0975 µg/mL	first compound 0.195 µg/mL
[1], partner 0.15 µg/mL	0.717	0.688	0.539
[1], partner 0.3 µg/mL	–	–	0.54
[1], partner 0.6 µg/mL	–	–	0.496
[2], partner 0.15 µg/mL	0.958	0.995	0.96
[2], partner 0.3 µg/mL	0.731	0.723	0.736
[2], partner 0.6 µg/mL	0.534	0.51	0.464

Conditions	Bliss interaction score
[3]	-0.0649
[4]	0.0897
[5]	-0.194
[6]	-0.0368

CO/N=C(\C(=O)N[C@@H]1C(=O)N2C(C(=O)O)=C(COC(N)=O)CS[C@H]12)c1ccco1 [Cefuroxime] + Cc1ncc([N+](=O)[O-])n1CCO [Metronidazole]
fitness
Conditions	partner 0.625 µg/mL	partner 1.25 µg/mL	partner 2.5 µg/mL
[1], first compound 0.04875 µg/mL	0.741	0.767	0.715
[1], first compound 0.195 µg/mL	0.547	0.515	0.497
[2], first compound 0.04875 µg/mL	≥ 1	0.923	0.993
[2], first compound 0.0975 µg/mL	0.897	0.939	0.918
[2], first compound 0.195 µg/mL	0.943	0.978	0.921

fitness, [1], one replicate
Conditions	first compound 1.562 µg/mL	first compound 3.125 µg/mL	first compound 6.25 µg/mL
partner 0.625 µg/mL	0.428	0.372	0.251
partner 1.25 µg/mL	0.376	0.268	0.242
partner 2.5 µg/mL	0.287	0.219	0.15

Conditions	Bliss interaction score
[3]	0.0643
[4]	0.132
[5]	-0.0487
[6]	-0.0335

CO/N=C(\C(=O)N[C@@H]1C(=O)N2C(C(=O)O)=C(COC(N)=O)CS[C@H]12)c1ccco1 [Cefuroxime] + C[n+]1ccc(-c2cc[n+](C)cc2)cc1 [Paraquat]
fitness
Conditions	first compound 0.04875 µg/mL	first compound 0.0975 µg/mL	first compound 0.195 µg/mL
[1], partner 1.25 µg/mL	0.705	0.633	0.539
[1], partner 2.5 µg/mL	0.682	0.625	0.522
[1], partner 5 µg/mL	0.632	0.584	0.366
[2], partner 1.25 µg/mL	0.955	0.906	0.963
[2], partner 2.5 µg/mL	0.88	0.924	0.937
[2], partner 5 µg/mL	0.993	0.907	0.939

fitness, [1], one replicate
Conditions	first compound 1.562 µg/mL	first compound 3.125 µg/mL	first compound 6.25 µg/mL
partner 1.25 µg/mL	0.224	0.144	0.0805
partner 2.5 µg/mL	0.179	0.131	0.0628
partner 5 µg/mL	0.147	0.0619	0.0182

Conditions	Bliss interaction score
[3]	-0.0801
[4]	0.0764
[5]	-0.0456
[6]	-0.0322
